In paper PMC7290441 (Viruses, 2020):
Where two headings read alike, the source gives them in different places.

Experiments:
[1] = test system: PR8 virus (viral proteins NP, HA, M1); type: cell-based, influenza A virus; settings: […]; nylidrin 100 μM, OSV-C 10 μM, RBV 100 μM
[2] = test system: A/Puerto Rico/8/1934 (H1N1); settings: MDCK cells
[3] = test system: A/Hong Kong/8/1968 (H3N2)
B/Lee/40 [4] = test system: B/Lee/40
[5] = test system: A/California/7/2009 (H1N1); settings: MDCK cells
[6] = test system: A/Brisbane/59/2007 (H1N1); settings: MDCK cells
A/Seoul/11/1988 (H3N2) [7] = settings: MDCK cells
A/Perth/16/2009 (H3N2) [8] = settings: MDCK cells
[9] = test system: A/Brisbane/10/2007 (H3N2)
[10] = test system: A/Victoria/361/2011-like (H3N2); settings: MDCK cells
B/Brisbane/60/2008 [11] = settings: MDCK cells
in vitro = settings: dog
[12] = test system: A/Puerto Rico/8/1934 (H1N1); experiment: microbe, parasite or virus in culture; settings: Influenza A virus, H1N1, MDCK, 72 h, read-out: EC50 against A/Puerto Rico/8/1934 (H1N1)
[13] = test system: A/Hong Kong/8/1968 (H3N2); experiment: microbe, parasite or virus in culture; settings: Influenza A virus, H3N2, MDCK, 72 h, read-out: EC50 against A/Hong Kong/8/1968 (H3N2)
B/Lee/40 [14] = experiment: microbe, parasite or virus in culture; settings: Influenza B virus, MDCK, 72 h, read-out: EC50 against B/Lee/40
[15] = test system: A/California/7/2009 (H1N1); experiment: microbe, parasite or virus in culture; settings: Influenza A virus, H1N1, MDCK, 72 h, read-out: EC50 against A/California/7/2009 (H1N1)
[16] = test system: A/Brisbane/59/2007 (H1N1); experiment: microbe, parasite or virus in culture; settings: Influenza A virus, H1N1, MDCK, 72 h, read-out: EC50 against A/Brisbane/59/2007 (H1N1)
A/Seoul/11/1988 (H3N2) [17] = experiment: microbe, parasite or virus in culture; settings: Influenza A virus, H3N2, MDCK, 72 h, read-out: EC50 against A/Seoul/11/1988 (H3N2)
A/Perth/16/2009 (H3N2) [18] = experiment: microbe, parasite or virus in culture; settings: Influenza A virus, H3N2, MDCK, 72 h, read-out: EC50 against A/Perth/16/2009 (H3N2)
[19] = test system: A/Brisbane/10/2007 (H3N2); experiment: microbe, parasite or virus in culture; settings: Influenza A virus, H3N2, MDCK, 72 h, read-out: EC50 against A/Brisbane/10/2007 (H3N2)
[20] = test system: A/Victoria/361/2011-like (H3N2); experiment: microbe, parasite or virus in culture; settings: Influenza A virus, H3N2, MDCK, 72 h, read-out: EC50 against A/Victoria/361/2011-like (H3N2)
B/Brisbane/60/2008 [21] = experiment: microbe, parasite or virus in culture; settings: Influenza B virus, MDCK, 72 h, read-out: EC50 against B/Brisbane/60/2008
influenza B strain (Lee) = experiment: Chemical library screen, CPE reduction assay, influenza B; type: cell-based, influenza B virus; settings: 20 µM
[22] = test system: influenza A viruses (PR8 and HK); experiment: microbe, parasite or virus in culture; settings: PR8, MDCK, read-out: viability of infected MDCK cells
[23] = Cytotoxicity to mock-infected MDCK cells (MTT); settings: dog

For CCC(CC)O[C@@H]1C=C(C(=O)O)C[C@H](N)[C@H]1NC(C)=O [OSV-C, oseltamivir carboxylate], the “viral proteins NP, HA and M1 (western blot)” value [1] was “not detected”, the “S.I. (CC50/EC50), A/Puerto Rico/8/1934 (H1N1)” value [2] was “(>25,714)” and the “S.I. (CC50/EC50), A/Hong Kong/8/1968 (H3N2)” value [3] was “(>180,000)”. The “S.I. (CC50/EC50), B/Lee/40” value (B/Lee/40 [4]) was “(>1125)”, the “S.I. (CC50/EC50), A/California/7/2009 (H1N1)” value [5] was “(>58,065)” and the “S.I. (CC50/EC50), A/Brisbane/59/2007 (H1N1)” value [6] was “(>58,065)”. The “S.I. (CC50/EC50), A/Seoul/11/1988 (H3N2)” value (A/Seoul/11/1988 (H3N2) [7]) was “(>180,000)”, the “S.I. (CC50/EC50), A/Perth/16/2009 (H3N2)” value (A/Perth/16/2009 (H3N2) [8]) was “(>30,000)” and the “S.I. (CC50/EC50), A/Brisbane/10/2007 (H3N2)” value [9] was “(>1714)”. The “S.I. (CC50/EC50), A/Victoria/361/2011-like (H3N2)” value [10] was “(>180,000)”, the “S.I. (CC50/EC50), B/Brisbane/60/2008” value (B/Brisbane/60/2008 [11]) was “(>17.0)” and the CC50 at 3 days (in vitro) was over 900 µM. The EC50 [12] was 0.04 ± 0.01 µM, the EC50 [13] was under 0.005 µM and the EC50 (B/Lee/40 [14]) was 0.8 ± 0.03 µM. For the same molecule, the EC50 [15] was 0.02 µM, the EC50 [16] was 0.02 µM and the EC50 (A/Seoul/11/1988 (H3N2) [17]) was under 0.005 µM. It also gave an EC50 (A/Perth/16/2009 (H3N2) [18]) of 0.03 ± 0.02 µM, an EC50 [19] of 0.53 ± 0.16 µM and an EC50 [20] of under 0.005 µM. It also gave an EC50 (B/Brisbane/60/2008 [21]) of 53.1 ± 25.2 µM.
With CC(CCc1ccccc1)NC(C)C(O)c1ccc(O)cc1 (stereo not shown) [Nylidrin, nylidrin] the CPE-reduction (influenza B strain (Lee)) was “no benefit”, the “viral proteins NP, HA and M1 (western blot)” value [1] was “not detected” and the “S.I. (CC50/EC50), A/Puerto Rico/8/1934 (H1N1)” value [2] was “(76.3)”. The “S.I. (CC50/EC50), A/Puerto Rico/8/1934 (H1N1)” value ([2]; listed as nylidrin) was 76.3, the “S.I. (CC50/EC50), A/California/7/2009 (H1N1)” value [5] was “(332.8)” and the “S.I. (CC50/EC50), A/Brisbane/59/2007 (H1N1)” value [6] was “(156.9)”. The “S.I. (CC50/EC50), A/Seoul/11/1988 (H3N2)” value (A/Seoul/11/1988 (H3N2) [7]) was “(14.3)”, the EC50 [12] was 7.2 ± 0.2 µM and the EC50 [13] was 12.1 ± 1.6 µM. For the same molecule, the EC50 (B/Lee/40 [14]) was over 100 µM, the EC50 [15] was 1.7 ± 0.5 µM and the EC50 [16] was 3.5 ± 1.6 µM. It also gave an EC50 (A/Seoul/11/1988 (H3N2) [17]) of 38.8 ± 19.4 µM, an EC50 (A/Perth/16/2009 (H3N2) [18]) of over 100 µM and an EC50 [19] of over 100 µM. The EC50 [20] was over 100 µM, the EC50 (B/Brisbane/60/2008 [21]) was over 100 µM and the viability at 20 µM [22] was 80%. The CC50 at 3 days [23] was 549.2 ± 0.5 µM.
For CN(C)C(=O)Oc1cc(OC(=O)N(C)C)cc(C(O)CNC(C)(C)C)c1 (stereo not shown) [Bambuterol, bambuterol], the EC50 [12] was over 100 µM, the EC50 [13] was over 100 µM and the EC50 (B/Lee/40 [14]) was over 100 µM. The CC50 at 3 days [23] was over 900 µM.
With OC(CN1CCC(Cc2ccc(F)cc2)CC1)c1ccc(Cl)cc1 (stereo not shown) [Eliprodil, eliprodil] the “S.I. (CC50/EC50), A/Hong Kong/8/1968 (H3N2)” value [3] was “(>15.5)”, the EC50 ([3]; read-out: EC50 against A/Hong Kong/8/1968 (H3N2)) was 58.1 ± 6.4 µM and the “S.I. (CC50/EC50), A/Brisbane/59/2007 (H1N1)” value [6] was “(>16.9)”. It also gave an EC50 [12] of over 100 µM, an EC50 [13] of over 44 µM and an EC50 (B/Lee/40 [14]) of over 100 µM. For the same molecule, the EC50 [15] was over 100 µM, the EC50 [16] was 53.1 ± 0.3 µM and the EC50 (A/Seoul/11/1988 (H3N2) [17]) was over 100 µM. For the same molecule, the EC50 (A/Perth/16/2009 (H3N2) [18]) was over 100 µM, the EC50 [19] was over 100 µM and the EC50 [20] was over 100 µM. The EC50 (B/Brisbane/60/2008 [21]) was over 100 µM and the CC50 at 3 days [23] was over 900 µM.
In the case of CC(C)(C)NCC(O)c1cc(Cl)c(N)c(Cl)c1 (stereo not shown) [Clenbuterol, clenbuterol], the “S.I. (CC50/EC50), A/Puerto Rico/8/1934 (H1N1)” value [2] is reported as “(>96.3)”, the “S.I. (CC50/EC50), A/California/7/2009 (H1N1)” value [5] is reported as “(>65.9)” and the “S.I. (CC50/EC50), A/Brisbane/59/2007 (H1N1)” value [6] is reported as “(>69.8)”. The CC50 (in vitro) was over 900 µM, the EC50 [12] was 9.4 ± 4.6 µM and the EC50 [13] was over 100 µM. It also gave an EC50 (B/Lee/40 [14]) of over 100 µM, an EC50 [15] of 13.7 ± 3.6 µM and an EC50 [16] of 12.9 ± 0.3 µM. The EC50 (A/Seoul/11/1988 (H3N2) [17]) was over 100 µM, the EC50 (A/Perth/16/2009 (H3N2) [18]) was over 100 µM and the EC50 [19] was over 100 µM. For the same molecule, the EC50 [20] was over 100 µM and the EC50 (B/Brisbane/60/2008 [21]) was over 100 µM.
With CC(CCc1ccccc1)NCC(O)c1ccc(O)c(C(N)=O)c1 (stereo not shown) [Labetalol, labetalol] the “S.I. (CC50/EC50), A/Hong Kong/8/1968 (H3N2)” value [3] was “(>11.3)”, the EC50 [12] was over 100 µM and the EC50 [13] was 44 ± 9.7 µM. It also gave an EC50 (B/Lee/40 [14]) of over 100 µM, an EC50 [15] of over 100 µM and an EC50 [16] of over 100 µM. It also gave an EC50 (A/Seoul/11/1988 (H3N2) [17]) of over 100 µM, an EC50 (A/Perth/16/2009 (H3N2) [18]) of over 100 µM and an EC50 [19] of over 100 µM. For the same molecule, the EC50 [20] was over 100 µM, the EC50 (B/Brisbane/60/2008 [21]) was over 100 µM and the CC50 at 3 days [23] was 498.1 ± 0.5 µM.
